Experimental data reported in patent US4016176A, “Esters of 4-hydroxy-2,9-dioxatricyclo[4.3.1.0^3,7 ] decanes and processes for their production” (Kali-Chemie Pharma GmbH, priority 1973, dated 1977).
Read-outs that look alike come from different tables or passages of the source.

Key:
[1] = test system: mice; test: acute toxicity (LD50) in mice; type: in vivo, mouse; conditions: mouse, Table 3; for B - lethal dose (LD50) to mice, intraperitoneally: intraperitoneal
Description: (§1) In the Table 3 which follows are listed results of tests pertaining to the effectiveness of various compounds that are disclosed herein. The results are included in the several columns under letters whose significance is as follows:
(§2) A - lethal dose (LD50) to mice in milligrams per kilogram of body weight of the mouse when administered per os.
(§3) B - lethal dose (LD50) to mice in milligrams per kilogram of body weight of the mouse when administered intraperitoneally.
(§4) A. lethal dose (LD50) to mice in milligrams per kilogram body weight of the mouse when administered per os.
(§5) B. lethal dose (LD50) to mice in milligrams per kilogram body weight of the mouse administered intraperitoneally.
(§6) The values specified in Tables 4 and 5 hereinafter refer to milligrams per kilogram of body weight of the mouse.
(§7) Tests performed in accordance with the procedure described by Campbell and Richter in Acta Pharmacol. et Toxicol., vol. […] This is indicated by the results that are reported in Table 5 in which the headings A and F have the same significance as hereinbefore while the values in the column heading L pertain to the dose in milligrams per kilogram of body weight that was required to produce a lowering of the rectal temperature, which are values indicative of the depressant effect of a compound upon the central nervous system.

[2] = acute toxicity (LD50) in mice; type: in vivo, mouse; conditions: mouse, in vivo, mouse
Description: as §1, §2, §3, §4, §5, §6, §7

[3] = test system: mouse; test: ataxia in mice; type: in vivo; conditions: mouse; Table 3
Description: as §1
C - ataxia: Dose in milligrams per kilogram of body weight required to produce ataxia in a mouse.

[4] = test system: mouse; test: lowering of the rectal temperature in mice; type: in vivo; conditions: mouse; Table 5; read-out: L dose required to produce a lowering of the rectal temperature
Description: as §6, §7

[5] = test system: white mice; test: ptosis test (Campbell and Richter screening); type: in vivo, mouse; conditions: for F ptosis test: mouse, Table 5
Description: (§8) The sedative and hypnotic effectiveness of the compounds of the invention were also ascertained by screening tests with white mice described by Campbell and Richter in Acta Pharmacol. et Toxicol. 25 (1967) page 345. In Table 4 the results of various specific screening tests are listed. These tests were as follows:
as §6, §7

[6] = test system: mouse; test: prolongation of narcosis produced by hexobarbital in mice; type: in vivo; conditions: hexobarbital narcosis, factor of 4, Table 3
Description: (§9) In the Table 3 which follows are listed results of tests pertaining to the effectiveness of various compounds that are disclosed herein.

[7] = test system: mice; test: narcosis (lateral position) in mice; type: in vivo, mouse; conditions: Mus musculus, ip, 0.05 h, read-out: D - narcosis (lateral position): dose (ED50) which produces narcosis for 3 minutes in 50% of the mice
Description: as §9

[8] = test system: white mice; test: balance bar test (Campbell and Richter screening); type: in vivo; conditions: mouse; Table 4; read-out: K. balance bar test (ED50)
Description: as §8
K. balance bar test (ED50).
as §6

[9] = test system: white mice; test: climbing test (Campbell and Richter screening); type: in vivo; conditions: mouse; Table 4; read-out: J. climbing test (ED50)
Description: as §8, §6

[10] = po, per os, Table 5, read-out: A lethal dose (LD50) to mice, per os
[11] = ip, intraperitoneal, Table 4, read-out: B. lethal dose (LD50) to mice, intraperitoneally
[12] = po, per os, Table 4, read-out: A. lethal dose (LD50) to mice, per os

SMILES | LD50 [2, 11] [mg/kg] | LD50 [2, 12] [mg/kg] | ED50 [8] [mg/kg] | ED50 [9] [mg/kg] | other results
COC1OC2OC3(C)C(O)CC(C2C)C13 (stereo not drawn) [Compound No. 1561, 4α-Hydroxy-8-methoxy-3,10-dimethyl-2,9-dioxatricyclo[4.3.1.0^3,7]decane] | – | – | – | – | B - lethal dose (LD50) to mice, intraperitoneally [1]: 1600 milligrams per kilogram of bod; A - lethal dose (LD50) to mice, per os [1]: > 1500 milligrams per kilogram of bod; LD50 [2, 10]: > 1500 mg/kg; C - ataxia: dose required to produce ataxia in a mouse [3]: 200 milligrams per kilogram of bod; minimal effective dose [4]: 100 mg/kg; F ptosis test [5]: 100 milligrams per kilogram of bod; E - dose which prolongs narcosis produced by hexobarbital in a mouse by a factor of 4 [6]: 68 milligrams per kilogram of bod; ED50 [7]: 800 mg/kg
C=C1C2OC(OC)C3C1CC(O)C3(C)O2 (stereo not drawn) [Compound No. 2090, 4α-Hydroxy-8-methoxy-3-methyl-10-methylene-2,9-dioxatricyclo[4.3.1.0^3,7] decane] | – | – | – | – | B - lethal dose (LD50) to mice, intraperitoneally [1]: 300 milligrams per kilogram of bod; A - lethal dose (LD50) to mice, per os [1]: 774 milligrams per kilogram of bod; C - ataxia: dose required to produce ataxia in a mouse [3]: 25 milligrams per kilogram of bod; minimal effective dose [4]: 200 mg/kg; F ptosis test [5]: 100 milligrams per kilogram of bod; ED50 [7]: < 300 mg/kg
COC1OC2OC3(C)C(OC(=O)CC(C)C)CC(C2C)C13 (stereo not drawn) [Compound No. 2215, 4α-Isovaleryloxy-8-methoxy-3,10-dimethyl-2,9-dioxatricyclo[4.3.1.0^3,7]decane] | – | – | – | – | LD50 [2, 10]: > 1470 mg/kg; minimal effective dose [4]: 200 mg/kg; dose producing ptosis relative to the 4-hydroxy compound (in words) ([5]; compared with Compound No. 1561): one-fourth or one-half of the dose required of the 4-hydroxy-compound; F ptosis test [5]: 50 milligrams per kilogram of bod
C=CCNC(=O)OC1CC2C(C)C3OC(OC)C2C1(C)O3 (stereo not drawn) [Compound No. 2274, 4α-(N-Allylcarbamyloxy)-8-methoxy-3,10-dimethyl-2,9-dioxatricyclo[4.3.1.0^3,7]decane] | 279 | 339 | 62.5 | 75 | –
C=CCNC(=O)OC1CC2C(=C)C3OC(OC)C2C1(C)O3 (stereo not drawn) [Compound No. 2286, 4α-(N-Allylcarbamyloxy)-8-methoxy-3-methyl-10-methylene-2,9-dioxatricyclo[4.3.1.0^3,7]decane] | 444 | 970 | 50 | 112 | –
COC1OC2OC3(C)C(OC(=O)NC4CCCCC4)CC(C2C)C13 (stereo not drawn) [Compound No. 2365, 4α-(N-Cyclohexylcarbamyloxy)-8-methoxy-3,10-dimethyl-2,9-dioxatricyclo[4.3.1.0^3,7]decane] | 832 | 1470 | 137 | 150 | –
CCCCNC(=O)OC1CC2C(C)C3OC(OC)C2C1(C)O3 (stereo not drawn) [compound 2327] | 432 | 690 | 18 | 56 | –
COC1OC2OC3(C)C(OC(=O)NC(C)(C)C)CC(C2C)C13 (stereo not drawn) [compound 2328] | 1130 | 1470 | 56 | 175 | –
CCCNC(=O)OC1CC2C(C)C3OC(OC)C2C1(C)O3 (stereo not drawn) [compound 2364] | 244 | 327 | 38 | 44 | –
C=C1C2OC(OC)C3C1CC(OC(=O)NCCC)C3(C)O2 (stereo not drawn) [compound 2388] | 516 | 619 | 33 | 75 | –
CNC(=O)OC1CC2C(C)C3OC(OC)C2C1(C)O3 (stereo not drawn) [compound 2500] | 954 | 1140 | 621 | 250 | –
C=CCNC(=O)OC1CC2C(=C)C3OC(OCC)C2C1(C)O3 (stereo not drawn) [compound 2658] | 331 | 470 | 62 | 185 | –
